# Assay results from patent publication US20240083857A1, “2-Methyl-Quinazolines” (Bayer Pharma Aktiengesellschaft, priority 2017, published 2024).
# Key:
# [1] = target: human SOS1 (loading of human K-Ras^G12C-GDP with fluorescent GTP-analog) (Homo sapiens, UniProt Q07889); assay: Biochemical assay 3: K-Ras^G12C activation assay by hSOS1 (HTRF); settings: no GTP; for IC50: read-out: Assay 3 (KRAS-Activation by SOS no GTP) activity expressed as IC50; for inhibition at 20 µM: read-out: Assay 3 (KRAS-Activation by SOS no GTP) activity expressed as % inhibition at 20 μM
# [2] = target: human SOS1 (nucleotide exchange of K-Ras^G12C) (Homo sapiens, UniProt Q07889); assay: Biochemical assay 2: K-Ras^G12C activation assay by hSOS1 at high GTP concentration (HTRF); settings: high GTP; read-out: Assay 2 (KRAS-Activation by SOS high GTP) activity expressed as IC50
SMILES,IC50 [1],IC50 [2],inhibition at 20 µM [1]
"COc1cc2nc(C)nc(N[C@H](C)c3cccc(-c4cnc5n4CCC5)c3)c2cc1OC [Example 261, N-{(1R)-1-[3-(6,7-dihydro-5H-pyrrolo[1,2-a]imidazol-3-yl)phenyl]ethyl}-6,7-dimethoxy-2-methylquinazolin-4-amine]",1.1 µM,0.873 µM,–
"COc1cc2nc(C)nc(NC(C)c3ccc(-c4ccccc4CN(C)C)s3)c2cc1OC (centres unmarked) [Example 262, N-[1-(5-{2-[(dimethylamino)methyl]phenyl}thiophen-2-yl)ethyl]-6,7-dimethoxy-2-methylquinazolin-4-amine]",0.0511 µM,0.044 µM,–
"CNCc1ccccc1-c1cc(C(C)Nc2nc(C)nc3cc(OC)c(OC)cc23)cs1 (centres unmarked) [Example 263, 6,7-dimethoxy-2-methyl-N-[1-(5-{2-[(methylamino)methyl]phenyl}thiophen-3-yl)ethyl]quinazolin-4-amine]",0.324 µM,0.232 µM,–
"COc1cc2nc(C)nc(NC(C)c3cc(Br)cs3)c2cc1OC (centres unmarked) [Example 264, N-[1-(4-bromothiophen-2-yl)ethyl]-6,7-dimethoxy-2-methylquinazolin-4-amine]",4.61 µM,1.67 µM,–
"COc1cc2nc(C)nc(NC(C)c3ccc(-c4cccc(CN)c4)s3)c2cc1OC (centres unmarked) [Example 265, N-[1-{5-[3-(aminomethyl)phenyl]thiophen-2-yl}ethyl]-6,7-dimethoxy-2-methylquinazolin-4-amine]",1.11 µM,1.47 µM,–
"COc1cc2nc(C)nc(NC(C)c3ccc(-c4ccc(CN)cc4)s3)c2cc1OC (centres unmarked) [Example 266, N-[1-{5-[4-(aminomethyl)phenyl]thiophen-2-yl}ethyl]-6,7-dimethoxy-2-methylquinazolin-4-amine]",3.74 µM,1.7 µM,–
"COc1cc2nc(C)nc(NC(C)c3cc(-c4ccn(CCN5CCCC5)n4)cs3)c2cc1OC (centres unmarked) [Example 267, 6,7-dimethoxy-2-methyl-N-[1-(4-{1-[2-(pyrrolidin-1-yl)ethyl]-1H-pyrazol-3-yl}thiophen-2-yl)ethyl]quinazolin-4-amine]",1.78 µM,1.52 µM,–
"CNCc1ccccc1-c1cccc([C@@H](C)Nc2nc(C)nc3cc(OC)c(OC)cc23)c1 [Example 268, 6,7-dimethoxy-2-methyl-N-[(1R)-1-{2′-[(methylamino)methyl]biphenyl-3-yl}ethyl]quinazolin-4-amine]",0.189 µM,0.151 µM,–
"COc1cc2nc(C)nc(NC(C)c3cc(-c4ccc(F)cc4CN)cs3)c2cc1OC (centres unmarked) [Example 269, N-[1-{4-[2-(aminomethyl)-4-fluorophenyl]thiophen-2-yl}ethyl]-6,7-dimethoxy-2-methylquinazolin-4-amine]",0.135 µM,0.115 µM,–
"COc1cc2nc(C)nc(NC(C)c3cc(-c4ccccc4CN)cs3)c2cc1OC (centres unmarked) [Example 270, N-[1-{4-[2-(aminomethyl)phenyl]thiophen-2-yl}ethyl]-6,7-dimethoxy-2-methylquinazolin-4-amine]",0.098 µM,0.0822 µM,–
"COc1cc2nc(C)nc(NC(C)c3cc(-c4cnc5n4CCC5)cs3)c2cc1OC (centres unmarked) [Example 272, N-{1-[4-(6,7-dihydro-5H-pyrrolo[1,2-a]imidazol-3-yl)thiophen-2-yl]ethyl}-6,7-dimethoxy-2-methylquinazolin-4-amine]",2.5 µM,1.5 µM,–
"COc1cc2nc(C)nc(NC(C)c3cc(-c4ccn(CCO)n4)cs3)c2cc1OC (centres unmarked) [Example 273, 2-[3-(5-{1-[(6,7-dimethoxy-2-methylquinazolin-4-yl)amino]ethyl}thiophen-3-yl)-1H-pyrazol-1-yl]ethanol]",3.63 µM,2.36 µM,–
"COc1cc2nc(C)nc(N[C@H](C)c3cccc(-c4ccc(F)cc4CN)c3)c2cc1OC [Example 274, N-{(1R)-1-[2′-(aminomethyl)-4′-fluorobiphenyl-3-yl]ethyl}-6,7-dimethoxy-2-methylquinazolin-4-amine]",0.214 µM,0.141 µM,–
"COc1cc2nc(C)nc(NC(C)c3ccc(-c4ccc(CN)o4)s3)c2cc1OC (centres unmarked) [Example 275, N-[1-{5-[5-(aminomethyl)furan-2-yl]thiophen-2-yl}ethyl]-6,7-dimethoxy-2-methylquinazolin-4-amine]",6.37 µM,2.97 µM,–
"COc1cc2nc(C)nc(NC(C)c3ccc(-c4ccc(CN)s4)s3)c2cc1OC (centres unmarked) [Example 276, N-{1-[5′-(aminomethyl)-2,2′-bithiophen-5-yl]ethyl}-6,7-dimethoxy-2-methylquinazolin-4-amine]",2.16 µM,1.66 µM,–
"COc1cc2nc(C)nc(NC(C)c3ccc(-c4ccccc4CNCC(=O)c4c[nH]c5ccccc45)s3)c2cc1OC (centres unmarked) [Example 277, 2-{[2-(5-{1-[(6,7-dimethoxy-2-methylquinazolin-4-yl)amino]ethyl}thiophen-2-yl)benzyl]amino}-1-(1H-indol-3-yl)ethanone]",0.263 µM,0.237 µM,–

SMILES,IC50 [1],IC50 [2],inhibition at 20 µM [1]
"COc1cc2nc(C)nc(NC(C)c3ccc(-c4cccc5sc(C(N)=O)c(N)c45)s3)c2cc1OC (centres unmarked) [Example 278, 3-amino-4-(5-{1-[(6,7-dimethoxy-2-methylquinazolin-4-yl)amino]ethyl}thiophen-2-yl)-1-benzothiophene-2-carboxamide]",–,3.71 µM,43%
"COC(=O)CNCc1ccccc1-c1ccc(C(C)Nc2nc(C)nc3cc(OC)c(OC)cc23)s1 (centres unmarked) [Example 281, methyl N-[2-(5-{1-[(6,7-dimethoxy-2-methylquinazolin-4-yl)amino]ethyl}thiophen-2-yl)benzyl]glycinate]",0.367 µM,0.447 µM,–
"COc1cc2nc(C)nc(NC(C)c3ccc(-c4ccccc4CNCC(=O)N4CCOCC4)s3)c2cc1OC (centres unmarked) [Example 285, 2-{[2-(5-{1-[(6,7-dimethoxy-2-methylquinazolin-4-yl)amino]ethyl}thiophen-2-yl)benzyl]amino}-1-(morpholin-4-yl)ethanone]",0.161 µM,0.158 µM,–
"COc1cc2nc(C)nc(NC(C)c3ccc(-c4cc(C)n(C)c4C#N)s3)c2cc1OC (centres unmarked) [Example 286, 3-(5-{1-[(6,7-dimethoxy-2-methylquinazolin-4-yl)amino]ethyl}thiophen-2-yl)-1,5-dimethyl-1H-pyrrole-2-carbonitrile]",–,17.4 µM,36%
"COc1cc2nc(C)nc(NC(C)c3ccc(-c4cscc4C#N)s3)c2cc1OC (centres unmarked) [Example 287, 5-{1-[(6,7-dimethoxy-2-methylquinazolin-4-yl)amino]ethyl}-2,3′-bithiophene-4′-carbonitrile]",5.76 µM,1.86 µM,–
"CCN(CC)Cc1ccccc1-c1ccc(C(C)Nc2nc(C)nc3cc(OC)c(OC)cc23)s1 (centres unmarked) [Example 288, N-[1-(5-{2-[(diethylamino)methyl]phenyl}thiophen-2-yl)ethyl]-6,7-dimethoxy-2-methylquinazolin-4-amine]",0.247 µM,0.14 µM,–
"COc1cc2nc(C)nc(NC(C)c3ccc(-c4ccccc4CN4CCCC(C(N)=O)C4)s3)c2cc1OC (centres unmarked) [Example 290, 1-[2-(5-{1-[(6,7-dimethoxy-2-methylquinazolin-4-yl)amino]ethyl}thiophen-2-yl)benzyl]piperidine-3-carboxamide]",0.159 µM,0.116 µM,–
"COc1cc2nc(C)nc(NC(C)c3ccc(-c4ccccc4CN(C)CC(F)F)s3)c2cc1OC (centres unmarked) [Example 291, N-{1-[5-(2-{[(2,2-difluoroethyl)(methyl)amino]methyl}phenyl)thiophen-2-yl]ethyl}-6,7-dimethoxy-2-methylquinazolin-4-amine]",2.23 µM,1.32 µM,–
"COc1cc2nc(C)nc(NC(C)c3ccc(-c4cc(Cl)ccc4CN)s3)c2cc1OC (centres unmarked) [Example 292, N-[1-{5-[2-(aminomethyl)-5-chlorophenyl]thiophen-2-yl}ethyl]-6,7-dimethoxy-2-methylquinazolin-4-amine]",0.0413 µM,0.0387 µM,–
"COc1cc2nc(C)nc(NC(C)c3ccc(-c4ccc(F)cc4CNC(=O)c4ncc[nH]4)s3)c2cc1OC (centres unmarked) [Example 293, N-[2-(5-{1-[(6,7-dimethoxy-2-methylquinazolin-4-yl)amino]ethyl}thiophen-2-yl)-5-fluorobenzyl]-1H-imidazole-2-carboxamide]",8.2 µM,3.92 µM,–
"COc1cc2nc(C)nc(NC(C)c3ccc(-c4ccc(F)cc4CNC(=O)c4cnc[nH]4)s3)c2cc1OC (centres unmarked) [Example 294, N-[2-(5-{1-[(6,7-dimethoxy-2-methylquinazolin-4-yl)amino]ethyl}thiophen-2-yl)-5-fluorobenzyl]-1H-imidazole-5-carboxamide]",8.58 µM,3.93 µM,–
"COc1cc2nc(C)nc(NC(C)c3ccc(-c4ccc(F)cc4CNC(=O)CNCC(F)(F)F)s3)c2cc1OC (centres unmarked) [Example 295, N-[2-(5-{1-[(6,7-dimethoxy-2-methylquinazolin-4-yl)amino]ethyl}thiophen-2-yl)-5-fluorobenzyl]-N^2-(2,2,2-trifluoroethyl)glycinamide]",2.78 µM,1.47 µM,–
"COc1cc2nc(C)nc(NC(C)c3ccc(-c4ccccc4CNCCO)s3)c2cc1OC (centres unmarked) [Example 297, 2-{[2-(5-{1-[(6,7-dimethoxy-2-methylquinazolin-4-yl)amino]ethyl}thiophen-2-yl)benzyl]amino}ethanol]",0.0606 µM,0.0578 µM,–
"COc1cc2nc(C)nc(NC(C)c3ccc(-c4ccccc4CN(C)CCO)s3)c2cc1OC (centres unmarked) [Example 298, 2-{[2-(5-{1-[(6,7-dimethoxy-2-methylquinazolin-4-yl)amino]ethyl}thiophen-2-yl)benzyl](methyl)amino}ethanol]",0.0588 µM,0.0493 µM,–
"COc1cc2nc(C)nc(NC(C)c3ccc(-c4ccc(F)cc4CNC(=O)CNc4ccccc4)s3)c2cc1OC (centres unmarked) [Example 299, N-[2-(5-{1-[(6,7-dimethoxy-2-methylquinazolin-4-yl)amino]ethyl}thiophen-2-yl)-5-fluorobenzyl]-N^2-phenylglycinamide]",1.88 µM,1.23 µM,–
